Measurements taken from patent publication US5500807A, “Selection method for pharmacologically active compounds” (The Regents of the University of California, priority 1992, dated 1996).

Tests used:
[1] = biological target: T1, human thyroid hormone receptor (Homo sapiens, UniProt P10828); experiment: Receptor binding to in-vitro translated human thyroid hormone receptor (FIGS. 8-13)
T1 sequence (P10828 1-461): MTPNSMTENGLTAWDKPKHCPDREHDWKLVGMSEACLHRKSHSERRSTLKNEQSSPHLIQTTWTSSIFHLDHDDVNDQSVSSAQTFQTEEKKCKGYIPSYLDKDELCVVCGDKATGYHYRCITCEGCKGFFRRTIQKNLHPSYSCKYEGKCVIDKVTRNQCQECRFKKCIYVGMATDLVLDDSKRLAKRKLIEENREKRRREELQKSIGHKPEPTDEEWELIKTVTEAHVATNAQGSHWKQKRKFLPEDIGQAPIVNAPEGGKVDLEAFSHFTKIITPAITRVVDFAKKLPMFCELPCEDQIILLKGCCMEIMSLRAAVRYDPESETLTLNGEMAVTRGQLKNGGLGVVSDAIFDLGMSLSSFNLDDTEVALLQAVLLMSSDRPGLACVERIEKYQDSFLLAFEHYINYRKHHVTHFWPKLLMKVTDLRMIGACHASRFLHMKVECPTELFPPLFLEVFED
Excerpt: In FIGS. 8-13, human thyroid hormone receptor was produced by in-vitro translation of RNA coding for the receptor protein. The RNA was synthesized enzymatically using a human thyroid receptor DNA clone as a template.

[2] = nuclear but not mitochondrial or cytosol fractions; cited from earlier work
[3] = system: thyroid hormone receptor in nuclei of intact GC cells; type: cell-based, rat; conditions: for competition with labeled T3, in words: intact cells
Method: Cell Culture utilized GC cells obtained from the cellular culture facility at UCSF. GC cells were plated at 2-4×10^6 cells/100 mm tissue culture disk obtained from Falcone, and were maintained at 37° C., in the mixture of O2 /CO2 95/5%, in DMEM 21 medium containing 10% of fetal calf serum, obtained from J. R. Scientific, Woodland, Calif., to which 100/ml of penicillin and streptomycin, and 2 mM of glutamine were added.
After 18 hours, cells were rinsed with 1 ml of PBS for 10 minutes at 37° C. and incubated for four hours in DMEM containing 10% serum substitute solution and 2% stripped calf serum. […] Incubations were carried out at 37° C. on a Tilt table.

rGH mRNA in GC cells = conditions: 300 pM T3; Northern analysis; FIG. 7a
Method: GC cells were plated at 2-4×10^6 cells/100 mm tissue culture disk obtained from Falcone, and were maintained at 37° C., in the mixture of O2 /CO2 95/5%, in DMEM 21 medium containing 10% of fetal calf serum, obtained from J. R. Scientific, Woodland, Calif., to which 100/ml of penicillin and streptomycin, and 2 mM of glutamine were added.
Preparation and Quantitation of Cytoplasmic RNA was done by plating and attachment for 12-18 hours of GC cells, followed by deinducing 4 days in 20 ml of DMEM containing 10% serum substitute solution obtained from Cell Culture Facility, UCSF, and 2% of stripped serum, prepared above. Media were replaced after the second day of deinduction.
The amount of rGH message present in aliquots of GC cell cytoplasm was determined by Northern hybridization using glyoxylated RNA (Ibid., p. 380). Equal amounts of cytoplasmic RNA were examined per lane (15 or 20 ug). HeLa cell RNA was also tested as a control for specificity and background binding. […] Some blots were also probed with a 1.6 kb Kho I fragment of the pHF1 human gamma-actin gene according to Mol. Cel. […] Hybridizations were carried out for 18-48 hours at 42° C. Blots were autoradiographed with Kodak XAR-2 film using Cronex Lightning plus intensifying screens.
After hybridization, blots were autoradiographed and analyzed using Zenith scanning densitometer.

[4] = cited from earlier work
thyroid hormone receptor = conditions: J. Clin. Invest., 83 (1989); cited from earlier work
[5] = cases of clinical hypothyroidism

## CCN(CC)CCOc1c(I)cc(C(C)=O)cc1I
[1]
  binding to T3 (thyroid hormone) receptor, in words: zero binding

## CCN(CC)CCOc1c(I)cc(C(=O)c2c(C)oc3ccccc23)cc1I
[1]
  binding to T3 (thyroid hormone) receptor, in words: good binding to T3 receptor

## CCCCc1oc2ccccc2c1C(O)c1cc(I)c(OCCN(CC)CC)c(I)c1 (stereo not drawn)
[1]
  binding to T3 (thyroid hormone) receptor, in words: binds weakly to the T3 receptor

## CCCCNC(Cc1cc(I)c(Oc2ccc(O)c(I)c2)c(I)c1)C(=O)O (stereo not drawn)
[1]
  binding to T3 (thyroid hormone) receptor, in words: binds to the T3 receptor

## COc1ccc(C(=O)n2cc(CNC(Cc3cc(I)c(Oc4ccc(O)c(I)c4)c(I)c3)C(=O)O)c3cc(OC)ccc32)cc1 (stereo not drawn)
[1]
  binding to T3 (thyroid hormone) receptor, in words: binds to the T3 receptors

## N[C@@H](Cc1cc(I)c(Oc2ccc(O)c(I)c2)c(I)c1)C(=O)O [T3, triiodothyronine]
[2]
  binding to cellular fractions, in words: high-affinity, low capacity binding sites
[3]
  competition with labeled T3, in words: competed with labeled T3 for binding to the thyroid hormone receptors

## N[C@@H](Cc1cc(I)c(Oc2cc(I)c(O)c(I)c2)c(I)c1)C(=O)O [T4, thyroxine]
[2]
  binding to cellular fractions, in words: high-affinity, low capacity binding sites

## N[C@@H](Cc1cc(I)c(Oc2ccc(O)c(I)c2)c(I)c1)C(=O)O [^125 I-T3]
[3]; intact GC cells, normalized to DNA content
  maximum binding capacity: about 85 fmol/100 ug DNA

## CCCCc1oc2ccccc2c1C(=O)c1cc(I)c(OCCN(CC)CC)c(I)c1 [amiodarone, 2-butyl-3-[3,5-diiodo-4-(β-diethylaminoethoxy)-benzoyl]benzofuran]
rGH mRNA in GC cells
  effect on induction of rGH mRNA: blocked the induction of rGH mRNA
[3]
  competition with labeled T3, in words: competed with labeled T3 for binding to the thyroid hormone receptors
[4]; [5]
  T4 and T3 serum levels in clinical hypothyroidism: normal or slightly decreased
  pituitary thyroid receptor hormone binding: decreased pituitary thyroid receptor hormone binding
  thyroid-stimulating hormone (TSH) levels: mildly elevated
[4]; chronic administration
  thyroid side effects: both hyper- and hypothyroid-like side effects
[4]; in vivo
  effect on peripheral T4 monodeiodination: inhibition of peripheral T4 monodeiodination
  serum T4 and T3 levels: changes in the concentrations of serum thyroxine (T4) and triiodothyronine (T3) levels
Thyroid hormone receptor
  thyroid hormone antagonism, in words: behaves as a competitive inhibitor of triiodothyronine (T3)
